From patent US20190127805A1, “GENE SIGNATURES FOR CANCER DETECTION AND TREATMENT” (ALMAC DIAGNOSTICS LIMITED, priority 2016, published 2019)
Read-outs that look alike come from different tables or passages of the source.

Key:
[1] = tested on: platinum resistant epithelial ovarian cancer; details: cited from earlier work
[2] = tested on: OVCAR3 isogenic cell lines co-cultured with ECFCs; test: In-vivo Matrigel plug angiogenesis assay (micro-vessel density); design: species or system Athymic nude mice; details: 5 mg/kg IP; OVCAR3 cisplatin-resistant vs cisplatin-naïve cells, p-value 0.0024 (FIG. 44)
Procedure: All animal experiments were performed in conformity to UK Home Office Regulations (PPL2729) and with authorization from Queen's University Belfast Animal Welfare and Ethical Review Body (AWERB). Eight week-old male Athymic nude mice (Harlan Laboratories) were used. ECFC were inoculated at a high density of 2.45×106 and co-cultured with GFP-labelled OVCAR3 WT or GFP-labelled OVCAR3-CP at a density of 1.4×106. The GFP-labelled OVCAR3 WT and GFP-labelled OVCAR3-CP were seeded alone at a density of 1.4×106. Each condition was diluted in 10 μL of phenol red-free DMEM and re-suspended in 90 μL of growth factor-reduced Matrigel (Corning) and injected subcutaneously. After 8 days, mice were sacrificed under isoflurane anaesthesia using 31 gauge needless intraperitoneal (IP) administration of sodium pentobarbital at 200 mg/kg, and implants were removed and fixed in 4% formaldehyde overnight. Fixed Matrigel implants were then embedded in paraffin and 10 μm sections were prepared for staining. For 5 mg/Kg bevacizumab was administered IP once weekly for 14 days. Treatment was commenced on day 3. Mice were sacrificed after a 14-day treatment period as previously described.
IHC and immunofluorescence studies were conducted as previously describe. […] CD31 and αSMA stained vessels were then counted per high power field (200×) in three separate fields of three independent tumors from each group. […]

[3] = tested on: platinum sensitive recurrent ovarian cancer; details: cited from earlier work
[4] = tested on: ovarian cancer; details: cited from earlier work
[5] = tested on: ovarian cancer; details: cited from earlier work; remark: listed apart in the source

bevacizumab: recombinant humanised monoclonal antibody that binds to vascular endothelial growth factor A (VEGF-A)
objective response rate (ORR) ([1]; bevacizumab and chemotherapy): 30.9%
overall survival ([1]; chemotherapy and bevacizumab arm (chemotherapy alone 13.3 months)): 16.6 months
PFS ([1]; patients treated with bevacizumab and paclitaxel): 9.6 months
Progression free survival ([1]; single agent chemotherapy and bevacizumab (chemotherapy alone 3.4 months)): 6.7 months
hazard ratio for progression free survival ([1]; vs chemotherapy alone, 95% CI 0.32-0.53, p<0.001): 0.42
HR for overall survival ([1]; vs chemotherapy alone, 95% CI 0.69-1.14, not statistically significant): 0.89
MVD (micro-vessel density) [2]: less MVD
Median progression free survival ([3]; bevacizumab + gemcitabine and carboplatin (placebo+GC 8.4 months)): 12.4 months
HR for progression free survival ([3]; vs placebo+GC, 95% CI 0.388-0.605, p<0.0001): 0.484
progression free survival (PFS) ([4]; standard therapy plus bevacizumab (standard therapy alone 20.3 months)): 21.8 months
hazard ratio (HR) for PFS ([4]; vs standard therapy, 95% CI 0.70 to 0.94, P=0.004): 0.81
HR for PFS ([5]; bevacizumab cycle 2-6, 95% CI 0.795 to 1.040, P=0.16): 0.908
HR for PFS ([5]; bevacizumab plus chemotherapy cycle 2-22, 95% CI 0.625 to 0.824, P<0.001): 0.717
PFS ([5]; bevacizumab plus standard chemotherapy cycle 2-22 (control 10.3 months)): 14.1 months
PFS ([5]; bevacizumab with standard chemotherapy cycle 2-6 (control 10.3 months)): 11.2 months
